Source: patent publication US11603355B2, “Charged ion channel blockers and methods for use” (Nocion Therapeutics, Inc., priority 2019, dated 2023)

Key:
NaV1.7 [1] = target: T1, NaV1.7 (Homo sapiens, UniProt Q15858); assay: Automated patch clamp (Qube 384), internal block of NaV1.7; assay type: cell-based; details: IC50, compound in internal solution, HEK293 cells, read-out: Nav1.7 Intracellular Inhibition
T1 construct: expressed in transfected cells; host or cells: HEK293 (tetracycline-inducible)
T1 sequence (Q15858 whole entry): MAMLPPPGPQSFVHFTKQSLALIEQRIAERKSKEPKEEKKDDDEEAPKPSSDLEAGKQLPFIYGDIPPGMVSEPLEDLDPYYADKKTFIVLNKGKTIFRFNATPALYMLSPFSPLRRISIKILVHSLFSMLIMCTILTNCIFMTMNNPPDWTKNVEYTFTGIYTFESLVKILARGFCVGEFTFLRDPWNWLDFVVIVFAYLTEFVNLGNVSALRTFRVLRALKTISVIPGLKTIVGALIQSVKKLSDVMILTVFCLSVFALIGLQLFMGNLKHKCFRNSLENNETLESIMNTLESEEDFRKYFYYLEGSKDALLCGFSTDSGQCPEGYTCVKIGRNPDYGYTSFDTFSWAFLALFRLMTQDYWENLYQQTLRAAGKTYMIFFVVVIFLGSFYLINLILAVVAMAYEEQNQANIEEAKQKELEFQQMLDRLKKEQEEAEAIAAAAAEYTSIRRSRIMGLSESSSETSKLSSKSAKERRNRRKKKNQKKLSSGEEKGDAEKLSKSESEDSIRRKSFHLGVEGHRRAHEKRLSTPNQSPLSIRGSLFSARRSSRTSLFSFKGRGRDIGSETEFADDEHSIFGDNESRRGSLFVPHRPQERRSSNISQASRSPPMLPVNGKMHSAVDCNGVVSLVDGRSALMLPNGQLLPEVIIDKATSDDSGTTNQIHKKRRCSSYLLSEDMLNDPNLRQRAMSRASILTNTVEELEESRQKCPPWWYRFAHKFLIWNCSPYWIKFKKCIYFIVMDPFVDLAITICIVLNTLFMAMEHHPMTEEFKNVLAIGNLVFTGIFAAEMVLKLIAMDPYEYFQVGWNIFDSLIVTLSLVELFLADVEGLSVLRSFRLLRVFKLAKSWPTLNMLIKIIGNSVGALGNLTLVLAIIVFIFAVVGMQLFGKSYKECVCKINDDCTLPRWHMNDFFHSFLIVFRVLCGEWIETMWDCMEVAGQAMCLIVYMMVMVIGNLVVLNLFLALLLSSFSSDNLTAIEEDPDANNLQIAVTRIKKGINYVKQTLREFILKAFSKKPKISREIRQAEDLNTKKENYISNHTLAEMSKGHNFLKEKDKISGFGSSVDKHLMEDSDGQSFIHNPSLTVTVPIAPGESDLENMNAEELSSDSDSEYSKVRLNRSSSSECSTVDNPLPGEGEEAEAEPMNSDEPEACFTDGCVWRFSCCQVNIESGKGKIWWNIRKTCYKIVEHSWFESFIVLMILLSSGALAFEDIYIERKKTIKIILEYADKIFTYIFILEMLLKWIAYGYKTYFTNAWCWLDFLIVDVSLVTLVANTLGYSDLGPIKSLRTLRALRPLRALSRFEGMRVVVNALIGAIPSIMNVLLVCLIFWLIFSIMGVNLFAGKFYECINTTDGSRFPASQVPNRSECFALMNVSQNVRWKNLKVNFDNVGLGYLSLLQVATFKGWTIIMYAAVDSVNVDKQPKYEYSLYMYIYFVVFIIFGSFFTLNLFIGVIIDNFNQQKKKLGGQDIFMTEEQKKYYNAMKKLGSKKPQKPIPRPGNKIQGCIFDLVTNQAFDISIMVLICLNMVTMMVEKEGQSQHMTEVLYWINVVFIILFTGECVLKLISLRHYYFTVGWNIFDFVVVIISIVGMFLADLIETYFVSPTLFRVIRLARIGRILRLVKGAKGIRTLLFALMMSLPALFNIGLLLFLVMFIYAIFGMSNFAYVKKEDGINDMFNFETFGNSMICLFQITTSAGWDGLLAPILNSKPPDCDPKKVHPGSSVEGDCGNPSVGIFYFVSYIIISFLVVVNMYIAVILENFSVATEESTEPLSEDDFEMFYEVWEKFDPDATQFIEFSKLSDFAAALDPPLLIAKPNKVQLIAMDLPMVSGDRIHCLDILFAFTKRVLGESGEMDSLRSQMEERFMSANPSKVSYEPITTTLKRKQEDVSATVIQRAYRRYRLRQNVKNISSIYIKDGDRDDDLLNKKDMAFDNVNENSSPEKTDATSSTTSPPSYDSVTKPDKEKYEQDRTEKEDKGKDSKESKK
Procedure: (§1) NaV1.7 was expressed in HEK293 cells upon induction with tetracycline. Cells were cultured in DMEM containing 10% dialyzed Fetal Bovine Serum (VWR, Radnor, Pa.), 1% Glutamax (VWR, Radnor, Pa.), 1% Penicillin-Streptomycin (VWR, Radnor, Pa.), 100 mg/L Hygromycin (Thermo Fisher Scientific, Waltham, Mass. and 5 mg/L Blasticidin (Alfa Aesar, Haverhill, Mass.). Cells were grown and maintained at 37° C. in a humidified environment containing 10% CO2 in air. Cells were detached from the culture flask for passage and harvested using 0.05% Trypsin-EDTA (Thermo Fisher Scientific, Waltham, Mass.). To induce NaV1.7, cells were induced with tetracycline (0.1-1 μg/mL, IBI Scientific, Peosta, Iowa) the day before recording.
(§2) Before experiments, cells were washed with DPBS (VWR, Radnor, Pa.), digested with Detachin (VWR Radnor, Pa.) and then triturated 10 times in CHO Serum-Free Media (VWR Radnor, Pa.) to resuspend the cells and to break apart cell aggregates. Cells were counted and the final concentration was set at 2-5 million cells per mL.
(§3) The intracellular solution contained the following: 140 mM CsF, 1 mM/5 mM EGTA/CsOH, 10 mM HEPES, 10 mM NaCl, adjusted to pH 7.3 with CsOH, and osmolality to 320 with OSM solution. The external solution contained the following: 145 mM NaCl, 4 mM KCl, 1 mM MgCl2, 2 mM CaCl2), 10 mM HEPES, 10 mM Glucose, adjusted to pH 7.4 with CsOH and osmolality to 305 with OSM solution. The OSM solution was a normal Ringer solution containing (in mM) NaCl 155, HEPES 10, sucrose, KCl 3.5, CaCl2) 1.5, MgCl2 1 adjusted to pH 7.4 with NaOH. All chemicals are from Sigma-Aldrich, St. Louis, Mo. In order to test the degree of internal block by test compounds, the compounds were dissolved in internal solution at the indicated test concentration. […] In order to test the degree of external block by test compounds the compounds were dissolved in external solution at the indicated test concentration.
(§4) Automated Patch Clamps were performed on Qube 384 (Sophion Bioscience, Woburn Mass.) with multihole Qchips at a temperature setting of 22 degrees. The whole cells configuration was formed with default Qube seal and break-in parameter. The membrane potential was held at −100 mV before the voltage protocol began. Two voltage protocols were followed.
(§5) Step 1: Cells were held at −100 mV with a depolarized pulse to −20 mV for 10 ms, the interval was set at 5 s. Currents were corrected by default leak subtraction from every pulse. The duration was set at 5 mins.
(§6) Step 2: Cells were held at −100 mV with a depolarized pulse to −20 mV for 10 ms. The frequency was 5 Hz. Currents were corrected by leak subtraction calculated before step 2. The duration was set at 4 mins.
After Step 2, the Qchip was removed from the recording chamber. The internal solution was changed with solutions containing test compounds. Qchips were held at −100 mV without pulsing after being replaced in the recording chamber. The total solution switching time was 8 minutes. After the internal solution exchange, Cells were recorded and step 2 for repeated for 10 minutes.
Data analysis was performed by Sophion Analyzer. Cells were filtered with minimum 50 MOhm seal resistance and minimum 5 nA starting current. The rundown of the currents was corrected with control cells (Non-Drug). The remaining was calculated by averaging last 3 points in the end of experiments. The base line was calculated as the average of last 3 points of Step 2.
IC50 curves were plotted with DR-plots/Hill function (a dose-response plot with a Hill fit).
Representative examples of the invention were tested for intracellular inhibition of NaV 1.7 in the automated patch clamp assay. Activity Range is reported as IC50: “++++” (<0.3 μM), “+++” (0.3-1 μM), “++” (1-3 μM) or “+” (3-10 μM).

NaV1.7 [2] = target: T1, NaV1.7; assay: Automated patch clamp (Qube 384), external block of NaV1.7; assay type: cell-based; details: IC50, compound in external solution, HEK293 cells, read-out: Nav1.7 Extracellular Inhibition
Procedure: as §1, §2, §3, §4, §5, §6
After Step 2, the external solution was changed with solutions containing test compounds. Qchips were held at −100 mV without pulsing. The total solution switching time was 8 minutes. After the external solution exchange, cells were recorded using the same procedure as step 2 for 10 minutes.
Data analysis was performed by Sophion Analyzer. Data were corrected with control cells (Non-Drug). The IC50 data were plotted with DR-plots/Hill function (a dose-response plot with a Hill fit). Representative examples of the invention were tested for extracellular inhibition of NaV 1.7 in the automated patch clamp assay. Activity Range is reported as IC50: “++++” ([…], “+++” (1-3 μM), “++” ([…]) or “+” (>10 μM). The results are presented below.

[3] = PAMPA membrane permeability assay; assay type: in vitro ADME; details: permeability coefficient, pH 7.4 buffer, GIT lipid, 4 hours incubation
Procedure: The PAMPA assay (pION, Inc., Woburn Mass.) was used to determine the ability of compounds of the invention to cross an artificial lipid membrane by passive diffusion. Test compounds were dissolved in DMSO (10 mM) and diluted 200-fold in buffer (pION Inc., pH 7.4) to provide 50 uM stock solutions. Buffer (150 μL) was added to a UV blank plate and stock solutions (150 μL) were transferred to a UV reference plate. The blank and reference spectrum were read using a spectrophotometer. Stock solutions (200 μL) were added to the donor plate of the PAMPA sandwich plate and an accept plate painted with GIT lipid (pION Inc, 5) was placed on top. Buffer (200 μL) was added to the acceptor plate and the PAMPA sandwich plate was incubated for 4 hours. Aliquots (150 μL) from the acceptor plate were added to a UV plate and read as acceptor spectrum. Aliquots (150 μL) of the donor solutions were added to a UV analysis plate and read as donor spectrum. The permeability coefficient of test compounds was calculated using PAMPA Explorer™ software (version 3.5.0.4) based on the AUC of the reference plate, the donor plate, and the acceptor plate.
The PAMPA permeability results (10^−6 cm/s) of representative compounds are reported as “+” (<0.1 10^−6 cm/s), “++” (0.1-2.0 10^−6 cm/s), “+++” (2.0-10.010^−6 cm/s) or “++++” (>10.0 10^−6 cm/s).

Compound	IC50 (NaV1.7 [1]) [µM]	IC50 (NaV1.7 [2]) [µM]	PAMPA (10^−6 cm/s) [3]
Cc1cccc(C)c1NC(=O)C[N+]1(Cc2ccccc2)CCCC(C(=O)N2CCCCCC2)C1 (stereo not shown) [Compound 64A]	1 to 3	3 to 10	+ (“+” (<0.1 10^−6 cm/s))
Cc1cccc(C)c1NC(=O)C[N+]1(Cc2ccccc2)CCCC(C(=O)NCC(C)C)C1.[Br-] (stereo not shown) [Compound 58A]	1 to 3	3 to 10	+ (“+” (<0.1 10^−6 cm/s))
Cc1cccc(C)c1NC(=O)C[N+]1(Cc2ccccc2)CCCCC1 [Compound 4]	0.3 to 1	> 10	
Cc1cccc(C)c1NC(=O)C[N+]1(Cc2ccccc2)CCCC(C(=O)OC2CCCC2)C1.[Br-] (stereo not shown) [Compound 50A]	1 to 3		+ (“+” (<0.1 10^−6 cm/s))
Cc1cccc(C)c1N1CCCC([N+]2(Cc3ccccc3)CCCCC2)C1=O (stereo not shown) [Compound 92A]	1 to 3	> 10	
Cc1cccc(C)c1OC(=O)C[N+]1(Cc2ccccc2)CCCCCC1 [Compound 83A, 1-benzyl-1-(2-(2,6-dimethylphenoxy)-2-oxoethyl) azepan-1-ium 2,2,2-trifluoroacetate]	0.3 to 1	1 to 3	
Cc1cccc(C)c1NC(=O)C[N+]1(Cc2ccccc2)CCCC(C(=O)NC2CCCC2)C1.[Br-] (stereo not shown) [Compound 60A]	1 to 3		+ (“+” (<0.1 10^−6 cm/s))
CCC(C(=O)Nc1c(C)cccc1C)[N+]1(Cc2ccccc2)CCCCC1 (stereo not shown) [Compound 6]	0.3 to 1	> 10	
Cc1cccc(C)c1NC(=O)C[N+]1(Cc2ccccc2)CCCC(C(=O)OCC(C)C)C1.[Br-] (stereo not shown) [Compound 48A]	1 to 3		+ (“+” (<0.1 10^−6 cm/s))
Cc1cccc(C)c1NC(=O)C[N+]1(Cc2ccccc2)CCCC(C(=O)OC2CCCCC2)C1.[Br-] (stereo not shown) [Compound 51A]	3 to 10	3 to 10	+ (“+” (<0.1 10^−6 cm/s))
Cc1cccc(C)c1NC(=O)C[N+]1(Cc2ccccc2)CCCC1 [Compound 5]	1 to 3	> 10	
Cc1cccc(C)c1S(=O)(=O)CC[N+]1(Cc2ccccc2)CCCCCC1 [Compound 88A, 1-benzyl-1-(2-((2,6-dimethylphenyl)sulfonyl)ethyl) azepan-1-ium bromide]	3 to 10	> 10	
Cc1cccc(C)c1NC(=O)C[N+]1(Cc2ccccc2)CCCC(C(=O)NC2CCCCC2)C1.[Br-] (stereo not shown) [Compound 61A]	3 to 10		+ (“+” (<0.1 10^−6 cm/s))
CC[N+](CC)(CCS(=O)(=O)c1c(C)cccc1C)Cc1ccccc1 [Compound 87A, N-benzyl-2-((2,6-dimethylphenyl)sulfonyl)-N, N-diethylethan-1-aminium bromide]	3 to 10	> 10	
Br.CCCCOC(=O)C1CCC[N+](CC(=O)Nc2c(C)cccc2C)(Cc2ccccc2)C1 (stereo not shown) [Compound 49A]	1 to 3	3 to 10	+ (“+” (<0.1 10^−6 cm/s))
